Laboratory results: US20240285502A1, “HAIR GROWTH AGENT” (ADJUVANT HOLDINGS CO., LTD., priority 2021, published 2024)

These compounds were tested on VEGF gene expression in human dermal papilla cells (assay: Evaluation of human dermal papilla cell VEGF gene expression (real-time PCR)). Conditions: 72 hours stimulation, relative to negative control group, GAPDH internal standard, FIG. 1.
Type: cell-based
Method: The VEGF gene is expressed in dermal papilla cells, and contributes to expression of such effects as increase in hair shaft diameter and improving maximum hair shaft length and improving hair shaft elongation rate and hair shaft growth promotion at head hair, beard, eyebrows, and/or eyelashes. Human dermal papilla cells were therefore used, and evaluation was carried out with respect to increase in VEGF gene expression for the respective components. Human dermal papilla cells (Catalog No. CA60205a; derived from person; Toyobo Co., Ltd. (Japan)) were purchased, testing and evaluation being carried out with maintenance and culture of cells being performed as described in the protocol. As drugs for testing, drug solutions of the following respective concentrations (final concentrations) were prepared and used. • Comparative Example 1: 30 μM minoxidil • Working Example 1: 0.3125 μM phytosphingosine • Working Example 2: 1.25 μM phytosphingosine • Working Example 3: Liquid mixture of 30 μM minoxidil and 1.25 μM phytosphingosine A 24-well plate was seeded with human dermal papilla cells so as to obtain 6×10^3 thereof per well. Following culture for 1 day within a CO2 incubator (5% CO2; 37° C.), the culture medium was replaced with culture medium which contained the respective drugs for testing. The cell plate was thereafter returned to the CO2 incubator, and this was further cultured for 72 hours. […] The GAPDH gene was used as an internal standard, the amount of VEGF gene expression being calculated relative to the negative control group. […] Concentration of the recovered RNA was measured using a NanoDrop Lite (Catalog No. ND-LITE; Thermo Fisher Scientific K.K.), and this was stored at -80° C. until the following cDNA creation procedure. […] II cDNA synthesis 5× Ready Mix (Catalog No. NE-LS64; Nippon Genetics Co., Ltd. (Japan)) was used to synthesize cDNA. […] II cDNA synthesis 5× Ready Mix was added to 16 μL of this sample solution, and this was agitated by vortexing. […]
In the case of `CCCCCCCCCCCCCC[C@@H](O)[C@@H](O)[C@@H](N)CO` [Working Example 2, phytosphingosine], the “change in amount of expression of the VEGF gene” value (“change in amount” below) is reported as “increase in dosage-dependent fashion in the amount of expression of the VEGF gene as compared with the control group”. With `CCCCCCCCCCCCCC[C@@H](O)[C@@H](O)[C@@H](N)CO` [Working Example 1, phytosphingosine] the “change in amount” value was “increase in dosage-dependent fashion in the amount of expression of the VEGF gene as compared with the control group”. For `CCCCCCCCCCCCCC[C@@H](O)[C@@H](O)[C@@H](N)CO` [phytosphingosine], the “change in amount” value was “significantly greater than that which was produced as a result of action of minoxidil”.
